Where two headings read alike, the source gives them in different places.
Assays:
[1] = system: alkaline phosphatase (ALP); details: 10 μM; for RFU Score (10 μM): 154-analog library, C2C12, duplicate; for RFU Score Threshold ≥ 800: Ex 450/Em 580 nm, rank in brackets not taken; for Fluorescence Z Score Threshold ≥ 10: Z score on DMSO control wells
Text: (§1) To identify small-molecule activators of osteoblast differentiation, we measured ALP activity using a fluorescent emission assay as a reporter for enzymatic digestion of ALP substrate in lysates derived from C2C12 myoblasts. […] Therefore, before screening, the assay was calibrated using recombinant human BMP4 protein as a positive control. Compounds were robotically deposited onto 384-well plates and then overlaid by C2C12 cells for a 4-day culture period, followed by lysis and fluorescent substrate assays (FIG. 1A; Table 1). To ensure uniformity, C2C12 cells were maintained in normal culture medium containing 10% fetal bovine serum, and lysis and substrate addition achieved using a microplate multidrop device. The primary screen (Table 2) encompassed greater than 47,000 small molecules tested at a final concentration of 10 μM.
(§2) For the primary screen, library compounds were distributed onto 384-well microplates (Greiner Bio-One 781091) at a final concentration of 10 μM in culture medium using a Perkin Elmer Janus automated workstation and WinPrep Version 4.8.3.315. Positive (rhBMP4, 1 ng/ml, R&D Systems) and negative controls (DMSO, 0.2%) were manually added to each plate by multichannel pipet. C2C12 cells were seeded onto compounds and controls at a density of 2000/well using a Thermo Multidrop Combi reagent dispenser and cultured for 4 days at 37° C., 5% CO2. Culture medium was aspirated using a BioTek EL406 plate washer and cells were lysed in RIPA buffer (Millipore 20-188) at ambient temperature for 10 minutes. 10 μl fluorescent alkaline phosphatase substrate (AttoPhos, Promega S1000) was added to lysates and incubated an additional 10 minutes before measuring the fluorescence (Excitation 450 nm/Emission 580 nm) on a BioTek Synergy Neo2 stacking microplate reader. Plates were processed and relative fluorescence raw values measured in stacks of 10-20. The data were processed using Collaborative Drug Discovery web-based software (CDD Vault) to determine Z score calculated on DMSO control wells and percent activation normalized against positive and negative controls (NPA). Cherry-picked hit candidates were re-tested in concentration response experiments, from which 4 candidates were chosen and purchased for further testing from either ChemBridge or Enamine, based on availability.
(§3) We also purchased a library of 154 structural chemical analogs assembled by ChemBridge Corp. from available screening library compounds.

[2] = system: alkaline phosphatase (ALP); assay: cells; details: Mus musculus; for activation at 10 µM: C2C12, 96 h
Text: as §1, §2, §3

[3] = read-out: NPA Score Threshold ≥ 5.0 (normalized percent activation)

In the case of `Cc1cc(C)c2[nH]c(=O)c(CN3CCC4(CCCNC4)C3)cc2c1` (centres unmarked) [RU-0227342], the “RFU Score (10 μM)” value [1] is reported as 591 and the activation at 10 µM [2] is reported as 11%.
For `Cc1cc(C)c2[nH]c(=O)c(CN3CCC4(CCOCC4)CC3)cc2c1` [RU-0227345], the “RFU Score (10 μM)” value [1] was 384 and the activation at 10 µM [2] was 3.6%.
In the case of `CC(=O)NCCC1CCCCN1Cc1cc2cc(C)cc(C)c2[nH]c1=O` (centres unmarked) [RU-0227648], the “RFU Score (10 μM)” value [1] is reported as 494 and the activation at 10 µM [2] is reported as 7.48%.
In the case of `O=C(c1[nH]cnc1-c1ccccc1)N1CC[C@H](CO)[C@H](O)C1` [RU-0227868], the “RFU Score (10 μM)” value [1] is reported as 505 and the activation at 10 µM [2] is reported as 7.88%.
In the case of `Cc1cc(C)c2[nH]c(=O)c(CN3CCOC(CN)C3)cc2c1` (centres unmarked) [RU-0228809], the “RFU Score (10 μM)” value [1] is reported as 341 and the activation at 10 µM [2] is reported as 1.81%.
`CC1CCN(C(=O)COc2ccccc2-c2[nH]cnc2-c2ccccc2)CC1` [RU-0228904] was tested, and the “RFU Score (10 μM)” value [1] was 590 and the activation at 10 µM [2] was 10.9%.
For `OCc1ccc(CN2CCCC(COc3ccccc3F)C2)o1` (centres unmarked) [RU-0229103], the “RFU Score Threshold ≥ 800” value ([1]; primary screen, C2C12, 4 days) was 1980 (2), the “Fluorescence Z Score Threshold ≥ 10” value ([1]; primary screen, C2C12, 4 days) was 46.85 (2) and the activation at 10 µM [2, 3] was 6.82%.
With `CN(C)CCC1CN(C(=O)c2[nH]cnc2-c2ccccc2)CCO1` (centres unmarked) [RU-0231240] the “RFU Score (10 μM)” value [1] was 596 and the activation at 10 µM [2] was 11.1%.
In the case of `COc1ccc(-c2[nH]cnc2-c2ccccc2)cc1CN(C)C` [RU-0231652], the “RFU Score (10 μM)” value [1] is reported as 299 and the activation at 10 µM [2] is reported as 0.62%.
In the case of `Cc1ccccc1OCCCN(C)c1nc(-c2cccnc2)nc2c1CNC2` [RU-0231961], the “RFU Score Threshold ≥ 800” value ([1]; primary screen, C2C12, 4 days) is reported as “Below Threshold”, the “Fluorescence Z Score Threshold ≥ 10” value ([1]; primary screen, C2C12, 4 days) is reported as “Below Threshold” and the activation at 10 µM [2, 3] is reported as 5.5%.
In the case of `c1ccc(-c2nc[nH]c2-c2cccc(CN3CCOCC3)c2)cc1` [RU-0232369], the “RFU Score (10 μM)” value [1] is reported as 294 and the activation at 10 µM [2] is reported as 0.43%.
In the case of `O=C(c1[nH]cnc1-c1ccccc1)N1CCCC(Nc2ccc(F)cc2)C1` (centres unmarked) [RU-0236307], the “RFU Score (10 μM)” value [1] is reported as 473 and the activation at 10 µM [2] is reported as 6.76%.
`Cc1cc(C)n(CC(C)Nc2nc(-c3ccncc3)nc3c2CNC3)n1` (centres unmarked) [RU-0236897] was tested, and the “RFU Score Threshold ≥ 800” value ([1]; primary screen, C2C12, 4 days) was “Below Threshold”, the “Fluorescence Z Score Threshold ≥ 10” value ([1]; primary screen, C2C12, 4 days) was “Below Threshold” and the activation at 10 µM [2, 3] was 5.32%.
In the case of `CCc1ncc2c(n1)CN(C(=O)c1[nH]cnc1-c1ccccc1)C2` [RU-0237095], the “RFU Score (10 μM)” value [1] is reported as 453 and the activation at 10 µM [2] is reported as 6.04%.
For `COc1ccc(-c2n[nH]cc2-c2[nH]cnc2-c2ccccc2)cc1` [RU-0237450], the “RFU Score (10 μM)” value [1] was 466 and the activation at 10 µM [2] was 6.49%.
`CCc1cnc(C)nc1N1CCCC(Cc2cccnc2)C1` (centres unmarked) [RU-0238003, 5-ethyl-2-methyl-4-[3-(pyridin-3-ylmethyl)piperidin-1-yl]pyrimidine] was tested, and the “RFU Score Threshold ≥ 800” value ([1]; primary screen, C2C12, 4 days) was 1340 (3), the “Fluorescence Z Score Threshold ≥ 10” value ([1]; primary screen, C2C12, 4 days) was 36.44 (3) and the “NPA Score Threshold ≥ 5.0 (normalized percent activation)” value ([1]; primary screen, C2C12, 4 days, normalized against rhBMP4 positive and DMSO negative controls) was “Below Threshold”. For the same molecule, the EC50 ([2]; C2C12, read-out: Measured EC50) was > 40 µM.
`Cc1ccc(-n2cc(CN3CCCC(Cn4ccnc4C)C3)cn2)cc1C` (centres unmarked) [RU-0238394] was tested, and the “RFU Score Threshold ≥ 800” value ([1]; primary screen, C2C12, 4 days) was 914 (15), the “Fluorescence Z Score Threshold ≥ 10” value ([1]; primary screen, C2C12, 4 days) was 12.45 (19) and the activation at 10 µM [2, 3] was 5.54%.
For `Cc1cc(C)c2[nH]c(=O)c(CN3CCN4CCN(C)CC4C3)cc2c1` (centres unmarked) [RU-0238998], the “RFU Score (10 μM)” value [1] was 469 and the activation at 10 µM [2] was 6.62%.
With `COc1cc(OC)c(-c2[nH]cnc2-c2ccccc2)c(OC)c1` [RU-0239439] the “RFU Score (10 μM)” value [1] was 472 and the activation at 10 µM [2] was 6.72%.
With `Cc1nc2cc(-c3cccc4ccnn34)ccc2s1` [RU-0239646] the “RFU Score Threshold ≥ 800” value ([1]; primary screen, C2C12, 4 days) was “Below Threshold”, the “Fluorescence Z Score Threshold ≥ 10” value ([1]; primary screen, C2C12, 4 days) was “Below Threshold” and the activation at 10 µM [2, 3] was 5.22%.
For `CCCC(C)c1nnc(NC(=O)c2ccccc2-n2cncn2)s1` (centres unmarked) [RU-0242581], the “RFU Score Threshold ≥ 800” value ([1]; primary screen, C2C12, 4 days) was 849 (24), the “Fluorescence Z Score Threshold ≥ 10” value ([1]; primary screen, C2C12, 4 days) was “Below Threshold” and the activation at 10 µM [2, 3] was 5.51%.
In the case of `CN(C)CCNc1cc(-c2ccc(Cl)cc2F)c2cc[nH]c2n1` [RU-0242925], the “RFU Score Threshold ≥ 800” value ([1]; primary screen, C2C12, 4 days) is reported as “Below Threshold”, the “Fluorescence Z Score Threshold ≥ 10” value ([1]; primary screen, C2C12, 4 days) is reported as “Below Threshold” and the activation at 10 µM [2, 3] is reported as 5.73%.
`Cc1nc2cc(C(=O)N3CCNC(=O)C3)ccc2s1` [RU-0243566] was tested, and the “RFU Score Threshold ≥ 800” value ([1]; primary screen, C2C12, 4 days) was “Below Threshold”, the “Fluorescence Z Score Threshold ≥ 10” value ([1]; primary screen, C2C12, 4 days) was “Below Threshold” and the activation at 10 µM [2, 3] was 5.55%.
For `CN1CC2(CCCN(C(=O)c3[nH]cnc3-c3ccccc3)CC2)OC1=O` (centres unmarked) [RU-0245926], the “RFU Score (10 μM)” value [1] was 558 and the activation at 10 µM [2] was 9.73%.
In the case of `COc1cccc(-c2[nH]cnc2-c2ccccc2)c1OCCN(C)C` [RU-0247047], the “RFU Score (10 μM)” value [1] is reported as 558 and the activation at 10 µM [2] is reported as 9.73%.
For `C=CCc1cc(-c2[nH]cnc2-c2ccccc2)cc(OC)c1O` [RU-0248392], the “RFU Score (10 μM)” value [1] was 423 and the activation at 10 µM [2] was 4.98%.
In the case of `CN(C)CC1(O)CCN(C(=O)c2[nH]cnc2-c2ccccc2)C1` (centres unmarked) [RU-0248829], the “RFU Score (10 μM)” value [1] is reported as 325 and the activation at 10 µM [2] is reported as 1.52%.
For `c1ccc(-c2nc[nH]c2-c2ccccc2OCCCN2CCOCC2)cc1` [RU-0248967], the “RFU Score (10 μM)” value [1] was 512 and the activation at 10 µM [2] was 7.58%.
With `CN1CCC(Cc2noc(-c3[nH]cnc3-c3ccccc3)n2)CC1` [RU-0249023] the “RFU Score (10 μM)” value [1] was 293 and the activation at 10 µM [2] was 0.4%.
With `c1ccc(-c2nc[nH]c2-c2ccc(OCCn3ccnc3)cc2)cc1` [RU-0249817] the “RFU Score (10 μM)” value [1] was 561 and the activation at 10 µM [2] was 9.84%.
For `O=C(CCc1n[nH]c2c1CCCC2)N1CCC2(CCCO2)CC1` [RU-0250369], the “RFU Score Threshold ≥ 800” value ([1]; primary screen, C2C12, 4 days) was “Below Threshold”, the “Fluorescence Z Score Threshold ≥ 10” value ([1]; primary screen, C2C12, 4 days) was “Below Threshold” and the activation at 10 µM [2, 3] was 5.46%.
For `O=C(NC1CC(=O)N(CCc2ccccc2)C1)c1[nH]cnc1-c1ccccc1` (centres unmarked) [RU-0252250], the “RFU Score (10 μM)” value [1] was 533 and the activation at 10 µM [2] was 8.85%.
For `CN1CC2(CCN(C(=O)c3[nH]cnc3-c3ccccc3)C2)OC1=O` (centres unmarked) [RU-0253075], the “RFU Score (10 μM)” value [1] was 500 and the activation at 10 µM [2] was 7.71%.
With `Cc1cc(C)c2[nH]c(=O)c(-c3nccn3CCc3cn[nH]c3)cc2c1` [RU-0253216] the “RFU Score (10 μM)” value [1] was 341 and the activation at 10 µM [2] was 2.09%.
`CCN1CCN(CCOc2ccccc2-c2[nH]cnc2-c2ccccc2)CC1` [RU-0253941] was tested, and the “RFU Score (10 μM)” value [1] was 547 and the activation at 10 µM [2] was 9.34%.
For `c1cc2c(cc1NC1CCCNC1)OCCO2` (centres unmarked) [RU-0256394], the “RFU Score Threshold ≥ 800” value ([1]; primary screen, C2C12, 4 days) was “Below Threshold”, the “Fluorescence Z Score Threshold ≥ 10” value ([1]; primary screen, C2C12, 4 days) was “Below Threshold” and the activation at 10 µM [2, 3] was 5.87%.
`Cc1cc(C)c2[nH]c(=O)c(CN(C)Cc3c(C)noc3C)cc2c1` [RU-0259020] was tested, and the “RFU Score (10 μM)” value [1] was 514 and the activation at 10 µM [2] was 8.18%.
